According to US7399746B2, “Agents for wound healing” (McGill University, priority 2004, dated 2008):

Tests used:
[1] = test system: LLC-PK1 cells, a porcine kidney epithelial cell line; experiment: in vitro wound healing, monolayer of kidney epithelial cells; format: cell-based; conditions: FIG. 1A
Protocol: Wound healing was measured using an art-established monolayer cell culture method (Nwomeh, et al. (1998) supra). Cells to be studied were plated in 48-well tissue culture plates at a cell density appropriate for obtaining confluent monolayers after one day in culture. Circular wounds were made in the center of the wells by placing a siliconized 200 μL tip into the well and lifting the cells from the plastic by applying suction. The successful creation of wounds was analysed using a phase contrast microscope. Cells were subsequently treated with control media or media containing the factors to be tested. The size of the wounds was immediately recorded for each well. […] After one or two days in culture (depending on the cells studied), the size of the wounds was measured again. Wound dimensions were evaluated with a Leica MZFL11 stereo microscope. Computer images of the wounds were recorded with imaging software and contours of each wound before and after treatment were traced manually. Collections of contours for all wounds were converted to BMP files and quantitated using the Band-Leader program. The results were expressed as % reduction of wounds taking as 100% the reduction obtained in control cell cultures. […] In these experiments, wound closure was being analysed, independent of the mechanism involved. […]

[2] = test system: primary human skin fibroblasts; experiment: in vitro wound healing, monolayer of skin fibroblasts; format: cell-based; conditions: FIG. 1B; for wound reduction: serum-free medium, two days
Protocol: (§1) Wound healing was measured using an art-established monolayer cell culture method (Nwomeh, et al. (1998) supra). Cells to be studied were plated in 48-well tissue culture plates at a cell density appropriate for obtaining confluent monolayers after one day in culture. Circular wounds were made in the center of the wells by placing a siliconized 200 μL tip into the well and lifting the cells from the plastic by applying suction. The successful creation of wounds was analysed using a phase contrast microscope. Cells were subsequently treated with control media or media containing the factors to be tested. The size of the wounds was immediately recorded for each well. The wounds were large enough to allow for a long-term incubation thereby improving the accuracy of the determinations. After one or two days in culture (depending on the cells studied), the size of the wounds was measured again. Wound dimensions were evaluated with a Leica MZFL11 stereo microscope. Computer images of the wounds were recorded with imaging software and contours of each wound before and after treatment were traced manually. Collections of contours for all wounds were converted to BMP files and quantitated using the Band-Leader program. The results were expressed as % reduction of wounds taking as 100% the reduction obtained in control cell cultures. No change corresponded to 0%, whereas complete closure corresponded to 100%. This system works well with close monitoring of cell densities. To prevent excess cell growth, the incubations were performed in serum-free medium supplemented with a single protein, transferrin (5 μg/mL). The absence of serum slowed down the healing process (one day in LLC-PK1 cells, two days in all other cultures), but reflected more accurately the situation likely to prevail in topical applications in vivo. Wound closure depends on the migration of cells at the sites of the wound and on cell proliferation. In these experiments, wound closure was being analysed, independent of the mechanism involved.
Cells analysed in the in vitro assay disclosed herein included monolayers of LLC-PK1 cells, a porcine kidney epithelial cell line used as an experimental system of wound healing for acute renal failure (Sponsel, et al. (1994) supra); monolayers of primary human skin fibroblasts; and monolayers of human skin keratinocytes. […] This made measurements of keratinocyte wound closure particularly difficult and time consuming. According, wound closure measurements of a cross created with two perpendicular cell lesions was particularly effective for analysing human skin keratinocytes (Sponsel, et al. (1994) supra).

[3] = test system: human skin keratinocytes; experiment: in vitro wound healing, monolayer of skin keratinocytes; format: cell-based; conditions: FIG. 1C
Protocol: as §1, with “The absence of serum slowed down the healing process (one day in LLC-PK1 cells, two days in all other cultures), but reflected more accurately the situation likely to prevail in topical applications in vivo. Wound closure depends on the migration of cells at the sites of the wound and on cell proliferation.” left out
Cells analysed in the in vitro assay disclosed herein included monolayers of LLC-PK1 cells, a porcine kidney epithelial cell line used as an experimental system of wound healing for acute renal failure (Sponsel, et al. (1994) supra); monolayers of primary human skin fibroblasts; and monolayers of human skin keratinocytes. […]

[4] = test system: kidney epithelial cells; experiment: cell proliferation, Alamar blue, kidney epithelial cells; format: cell-based, porcine; conditions: two days, FIG. 2A
Protocol: (§2) The effects of IGF-API, API and C26 on cell proliferation were also evaluated using the art-established Alamar blue technique developed for hematopoietic cells or endothelial cells (DiFalco, et al. (1997) Biochem. J. 326:407-13; DiFalco & Congote (2002) Cytokine 18 (1):51-60; Sandoval, et al. (2002) supra). Five thousand cells per well were plated in 96-well plates and grown over night in complete cell culture medium. The cells were subsequently starved for one day in serum-free medium supplemented with 5 μg/mL bovine transferrin and 200 μg/mL fatty-acid free, tissue culture-tested, bovine serum albumin and incubated for two days in the presence of the API derivatives indicated. For experiments with the hepatoma cell line, Hep G2, only 3000 cells were plated per well.

[5] = test system: human skin fibroblast cultures; experiment: cell proliferation, Alamar blue, skin fibroblasts; format: cell-based; conditions: two days, FIG. 2B
Protocol: as §2

[6] = test system: human skin keratinocytes; experiment: cell proliferation, Alamar blue, keratinocytes; format: cell-based
Protocol: as §2
(§3) Cell proliferation with EGF and C26 was also analysed for keratinocytes and Hep G2 cells. The number of experiments using keratinocytes with EGF was five, and 10 to 11 with C26. The number of experiments using Hep G2 with EGF and C26 was five, except for 20 nM EGF (n=8, P<0.05, paired t-test) and for 20 μM C26 (n=21, p<0.001, paired t-test and Student-Newman-Keuls test). All other P values were according to the Student-Newman-Keul multiple comparisons test.

[7] = test system: hepatoma cell line Hep G2; experiment: cell proliferation, Alamar blue, Hep G2; format: cell-based; conditions: Hep G2, 20 μM, FIG. 3B (n=21, p<0.001 for C26)
Protocol: as §2, §3

Row | Substance | concentration at which effective/active in wound reduction [1] [nM] | concentration with significant effect on wound reduction [2] [µM] | wound reduction [2] | concentration with effect on wound reduction [3] [nM] | wound reduction [3] | cell proliferation [4] | cell proliferation [5] | cell proliferation compared to EGF ([6]; equivalent concentrations of EGF, FIG. 3A) | cell proliferation ([6]; two days, FIG. 2C) | cell proliferation [7]
1 | API: alpha-1 proteinase inhibitor, also known as alpha-1-antitrypsin, the major physiological inhibitor of neutrophil elastase | 0.16 | 0.02 | significant, but lower than the effects obtained with IGF-API | 8 | marginal, but significant effect | – | – | – | – | –
2 | C26: small peptide corresponding to the last 26 amino acids of API (SEQ ID NO:2) (PFVFLMIEQNTKSPLFMGKVVNPTQK) | 32 | 8 | significant, but lower than the effects obtained with IGF-API | – | no significant effect | marginally stimulated cell proliferation | marginally stimulated cell proliferation | higher than the effects of equivalent concentrations of epidermal growth factor | marginally stimulated cell proliferation | significantly increased cell proliferation
